Where two headings read alike, the source gives them in different places. Each block holds one molecule with its values, some of them ahead of it.
Key:
[1] = system: pure elastin strips obtained from porcine aorta; assay: Tannic acid binding to pure aortic elastin (Folin-Denis method); conditions: incubation up to 24 hours
Method: In order to determine kinetics of tannin binding to elastin, pure elastin strips obtained from porcine aorta were incubated with tannic acid (TA) for up to 24 hours. The concentration of TA in solution was assayed with the Folin-Denis method. […] All data points between 0-6 hrs are statistically different with p<0.05. The bottom diagram of FIG. 6 is a representative schematic diagram of interactions between TA and elastin. The hydrophobic domains (2, black segments) are areas in the elastin molecule that are susceptible to elastase cleavage. TA and PGG molecules (4, round structures), with an affinity for these hydrophobic areas, likely bind to these regions within elastin molecules, and establish multiple hydrogen bonds (5, dashed lines) between their hydroxyl moieties and regions of neighboring elastin molecules, resulting in improved elastin stabilization. Desmosine crosslinks (3, X) within the hydrophilic regions (1) of elastin molecules.

[2] = system: pure elastin obtained from porcine aorta; assay: Elastase digestion of TA-treated pure aortic elastin (mass loss, histology); assay type: biochemical
Method: To investigate the potential of tannins as elastin stabilizing reagents, pure elastin obtained from porcine aorta was treated with tannic acid (TA) and the resistance of the treated porcine aorta to elastase was tested. Porcine aorta was chosen because large quantities of fresh tissue were easily obtainable. […] Purified elastin from porcine aorta was obtained using sodium hydroxide treatment followed by collagenase digestion. The smooth muscle cells, collagen and ground matrix are absent from purified aortic elastin. […] Elastase completely digested pure elastin strips, while addition of a 0.3% TA pretreatment step increased stability towards enzymatic digestion by almost 50%, as evaluated by mass loss shown in the graph at the left of FIG. 7 (p<0.05, n=6). Gravimetric data were further confirmed by histology and shown in FIG. 7A-D. Since histological analysis of elastase-digested elastin control was not possible at 48 hours due to complete (˜100%) degradation, we exposed pure elastin to elastase for only 1.5 hours, an interval which yields about 50% digestion and mass loss.

[3] = system: fresh aorta; assay: Resistance of treated fresh aorta to elastase digestion; conditions: 0.3% TA or 0.15% PGG (equimolar); accelerated digestion
Method: Resistance to elastase digestion was tested using fresh, untreated aorta and aorta treated with 0.3% TA or 0.15% PGG (equimolar concentrations). […] The differences between digestive values in TA and PGG samples were not significant (p>0.05). This is an accelerated digestion study, where high concentrations of enzyme were used. Such high enzyme activities are not expected to occur in vivo.

[4] = system: abdominal aortic aneurysms in rats; assay type: in vivo, rat; conditions: for external aortic diameter: PGG group
Method: Pelivascular application of calcium chloride (CaCl2) to the infrarenal abdominal aorta of rodents is an accepted rat aneurysm model. It involves exposure of the abdominal aorta through a midline incision, using gauze to apply CaCl2 solution directly onto the aorta for 15 minutes, followed by surgical closure. Using this aneurysm model, we evaluated the effect of a single PGG application on development of abdominal aortic aneurysms in rats. For this study, we exposed the abdominal aorta in adult rats (n=12), measured the aorta diameter using digital photography and applied a 0.03% PGG solution in saline for 15 minutes using soaked gauze. After rinsing in saline, we induced aortic injury with the 15-minute application of 0.5 mol/L CaCl2 solution. Control rats (n=12) were treated with saline for 15 minutes, rinsed and then treated with 0.5 mol/L CaCl2 solution for 15 minutes. After 28 days, we re-exposed the abdominal aorta under general anesthesia, measured the external diameter, then euthanized the rats and collected the aorta for analysis. […] Along with aortic dilatation, perivascular application of CaCl2 induced major changes in vascular elastin content and integrity as shown by analysis of desmosine, an amino acid which is specific to elastin, as well as histology, all shown in FIG. 12.

[5] = system: aneurysmal aortas of rats; assay: CaCl2 abdominal aortic aneurysm progression model, PGG applied to aneurysmal aorta at day 28; assay type: in vivo, rat; conditions: PGG group, 11 of 11
Method: Using the same perivascular CaCl2 aortic injury model described earlier, the ability of PGG to halt the progression of growing aneurysms was evaluated. By applying PGG to healthy abdominal aorta immediately before the CaCl2-based aneurysm induction, the previously mentioned in vivo experiment essentially evaluated the effect of PGG on aneurysm formation. However, in order to create a more clinically relevant scenario, PGG was also applied to abdominal aortas of rats which were aneurysmal to investigate PGG's ability to hinder or halt aneurysm progression. In order to do this, rat aortas were treated with calcium chloride, the animals were closed, and AAA was allowed to develop for 28 days. At this time point, the aneurysmal aortas were exposed by a second surgery, and PGG was applied perivascularly using gauze. As a control, saline was applied by the same means to the remaining aneurysmal aortas. AAA progression was followed for another 28 days in both groups. A progressive diameter increase, reaching a mean 47.1±11% increase at 56 days, was measured in the control group (n=11) and the results were illustrated in FIG. 13.

[6] = system: porcine carotid arteries; assay: In vitro elastase digestion of treated carotid arteries; conditions: treated 20 minutes; 0.6% (w/v) Glut, 0.15% (w/v) PGG, alone or as cocktail; elastase 24 hrs, 37°C
Method: Tissue resistance to elastase degradation after treatment with various reagents is studied. Specifically, porcine carotid arteries were treated with saline (control, for 20 minutes), Glutaraldehyde (Glut) (for 20 minutes), PGG (for 20 minutes), or a combination of the two (Glut+PGG for 20 minutes, or Glut for 10 minutes followed by a separate incubation with PGG for 10 minutes). Concentrations of the reagents used were 0.6% (w/v) for Glut, 0.15% (w/v) for PGG and 9 g/L for physiological saline.
The treated tissue was then exposed to an in vitro elastase digestion assay to subject the treated tissue to digestion for 24 hrs. All experiments were conducted at 37° C. Because the values shown are percentage of digestion, the lower the value, the better the reagent used preformed in resisting elastase degradation. […] It should be noted that the digestion model used in this experiment is a very accelerated and aggressive digestion model.

[7] = system: porcine aortic wall; assay: Collagenase digestion of treated aortic wall; conditions: type I collagenase 150 U/mL, 37°C, 24 hours
Method: Tissue resistance to collagenase degradation after treatment with various reagents is discussed. Specifically, samples of porcine aortic wall were either left untreated (fresh) or treated with Glut alone or Glut followed by tannic acid (TA). Glut treatment was performed with 0.6% (w/v) Glut for 1 day, and then 0.2% (w/v) Glut for 7 days at room temperature; Glut/TA treatment was performed with 0.6% (w/v) Glut for 1 day, and then 0.2% (w/v) Glut for 7 days at room temperature followed by 0.15% (w/v) TA for 4 days at 37° C. The treated samples were rinsed 3 times (1 hour each) in 100 mL water, and lyophilized to record dry weight. Samples with the amount of 15 to 25 mg dry weight were immersed in 1.2 mL of type I collagenase (150 U/mL) dissolved in 50 mM Tris buffer, 10 mM CaCl2, pH 7.4, and incubated at 37° C. with orbital shaking at 650 rpm for 24 hours. Following this exposure to collagenase, samples were centrifuged (10000 rpm, 10 minutes, 4° C.), individually rinsed three times in 1 mL water, lyophilized to obtain dry weight after collagenase, and the percent of digested tissue was calculated.

Compound: O=C(OC[C@H]1O[C@@H](OC(=O)c2cc(O)c(O)c(OC(=O)c3cc(O)c(O)c(O)c3)c2)[C@H](OC(=O)c2cc(O)c(O)c(OC(=O)c3cc(O)c(O)c(O)c3)c2)[C@@H](OC(=O)c2cc(O)c(O)c(OC(=O)c3cc(O)c(O)c(O)c3)c2)[C@@H]1OC(=O)c1cc(O)c(O)c(OC(=O)c2cc(O)c(O)c(O)c2)c1)c1cc(O)c(O)c(OC(=O)c2cc(O)c(O)c(O)c2)c1 [TA, tannic acid]
TA binding kinetics normalized to dry weight of pure elastin strips [1]: rapid uptake | increase in stability towards enzymatic digestion, evaluated by mass loss ([2]; 0.3% TA pretreatment, elastase, n=6): about 50% | histology of aortic elastin structure after elastase treatment ([2]; TA-stabilized elastin, elastase for up to 48 hours): remarkably preserved | resistance of aorta to elastase (digestion values vs untreated fresh aorta) [3]: dramatically increased resistance

time for which in vivo binding of PGG to aortic tissue is relatively stable ([4]; rat, in vivo): ≥ 28 days | PGG content of explanted aorta ([4]; rat, in vivo, 0 days): 1.8±0.6 μg PGG/mg dry tissue | PGG content of explanted aorta ([4]; rat, in vivo, 28 days): 1.2±0.4 μg PGG/mg dry tissue
Compound: O=C(OC[C@H]1O[C@@H](OC(=O)c2cc(O)c(O)c(O)c2)[C@H](OC(=O)c2cc(O)c(O)c(O)c2)[C@@H](OC(=O)c2cc(O)c(O)c(O)c2)[C@@H]1OC(=O)c1cc(O)c(O)c(O)c1)c1cc(O)c(O)c(O)c1 [PGG, penta-galloylglucose]
increase in aortic diameter after 28 days ([4]; 0.03% PGG in saline 15 minutes by soaked gauze before 0.5 mol/L CaCl2, day 28 vs day 0): 8±7% | loss of desmosine (elastin content) vs non-surgery control aorta ([4]; 28 days after injury): less than 15% | external aortic diameter ([4]; 28 days): 1.676±0.097 mm | external aortic diameter ([4]; day 0): 1.564±0.064 mm | aortas that maintained the same diameter or decreased at 56 days compared with 28 days [5]: 100%

resistance of tissue to elastase degradation (percentage digestion) vs saline [6]: slightly improved
Compound: O=CCCCC=O [Glut, Glutaraldehyde]
percentage of sample digested by collagenase (mass loss) [7]: over 20%
